Measurements from patent US20240246980A1, “MODULATORS OF MAS-RELATED G-PROTEIN RECEPTOR D AND RELATED PRODUCTS AND METHODS” (Escient Pharmaceuticals, Inc., priority 2022, published 2024).

molecular target: human MRGPRD (Homo sapiens, UniProt Q8TDS7); assay: MRGPRD antagonist activity, IP-One HTRF assay in CHO cells stably expressing human MRGPRD (versus 100 μM β-Alanine agonist); assay type: cell-based
Protocol: Chinese Hamster Ovary (CHO) cells stably expressing human MRGPRD (Eurofins, San Diego CA) were plated in a 384-well plate at 20,000 cells per well in 12 μL of Optimem (Fisher Scientific 11-058-021). Plates were kept in the incubator at 37° C. overnight. Antagonists were solubilized at a concentration of 10 mM in DMSO, and the agonists were solubilized to stock concentrations of either 50 mM in H2O (β-Alanine) or 10 mM in DMSO (all others) and then diluted in assay buffer (final concentrations of 5.7 mM Tris-HCl, 43 mM NaCl, 50 mM LiCl, pH=8). The concentration of DMSO was normalized across the plate. Antagonists were added to the plate using a Tecan D300 Digital Dispenser at nanoliter/picoliter volumes and 2 μL of agonists in assay buffer were added to each well for a final assay volume of 14 μL. Plates were covered and incubated for 1 h at 37° C. and then for 1 h at room temperature. IP-1 standards and HTRF detection reagents were added according to an IP-One-Gq Kit purchased from Cisbio (part number 62IPAPEJ) and incubated in the dark for 1 h at room temperature. Assay plates were read on either a Molecular Devices SpectraMax iD5 plate reader or a BMG ClarioStar plate reader. The HTRF ratio was calculated form the raw data and graphed using GraphPad Prism to calculate IC50 values. Data are expressed as average IC50 values and average percent antagonism calculated as a percent of the maximum efficacy response. For these studies, the variability of the data was assessed by determining the standard error of mean (SEM).
The activity ranges are denoted as follows: “+++++” denotes antagonist activity <100 nM; “++++” denotes antagonist activity between 100 and 500 nM; “+++” denotes activity between 500 and 1000 nM; “++” denotes activity between 1000 and 3000 nM; and “+” denotes activity >3000 nM.

Sequence of human MRGPRD (Q8TDS7 whole entry): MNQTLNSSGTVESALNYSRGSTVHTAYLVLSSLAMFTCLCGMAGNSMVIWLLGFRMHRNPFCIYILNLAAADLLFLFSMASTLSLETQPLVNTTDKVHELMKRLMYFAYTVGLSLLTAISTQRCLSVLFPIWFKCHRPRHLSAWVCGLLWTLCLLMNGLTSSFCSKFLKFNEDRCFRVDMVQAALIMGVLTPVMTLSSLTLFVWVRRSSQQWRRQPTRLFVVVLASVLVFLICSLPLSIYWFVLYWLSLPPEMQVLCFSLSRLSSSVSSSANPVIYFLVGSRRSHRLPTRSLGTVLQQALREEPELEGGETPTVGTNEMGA

Row | Compound | IC50 [nM]
1 | COc1cccc(-c2nc([C@@H]3CCCN(C(=O)NCCCN(C)C)C3)n3ccccc23)c1 [Compound 1-27] | 500 to 1000
2 | COc1cccc(-c2nc([C@@H]3CCCN(C(=O)NCCN(C)C)C3)n3ccccc23)c1 [Compound 1-29] | 500 to 1000
3 | CNC(=O)N1CCC[C@@H](c2nc(-c3cccc(OC)c3)c3ccccn23)C1 [Compound 2-1, (R)-3-(1-(3-methoxyphenyl)imidazo[1,5-a]pyridin-3-yl)-N-methylpiperidine-1-carboxamide] | > 3000
4 | CNC(=O)N1CCC[C@H](c2nc(-c3cccc(OC)c3)c3ccccn23)C1 [Compound 2-2] | > 3000
5 | COc1cccc(-c2nc(C3CCCN(C(=O)Nc4ccccc4C)C3)n3ccccc23)c1 (stereo not drawn) [Compound 3-4] | 1000 to 3000
6 | COc1cccc(-c2nc(C3CCCN(C(=O)Nc4ccccc4Cl)C3)n3ccccc23)c1 (stereo not drawn) [Compound 3-7] | 500 to 1000
7 | CCNC(=O)N1CCCC(c2nc(-c3cccc(OC)c3)c3ccccn23)C1 (stereo not drawn) [Compound 3-9] | 100 to 500
8 | COc1cccc(-c2nc(C3CCCN(C(=O)NC(C)(C)C)C3)n3ccccc23)c1 (stereo not drawn) [Compound 3-10] | 500 to 1000
9 | COc1cccc(-c2nc(C3CCCN(C(=O)NC4CC4)C3)n3ccccc23)c1 (stereo not drawn) [Compound 3-11] | > 3000
10 | COc1cccc(-c2nc(C3CCCN(C(=O)Nc4ccc(OC)cc4C)C3)n3ccccc23)c1 (stereo not drawn) [Compound 3-12] | 100 to 500
11 | CNC(=O)N1CCCC(c2nc(-c3cccc(OC)c3)c3ccccn23)C1 (stereo not drawn) [Compound 3-13] | > 3000
12 | COc1cccc(-c2nc(C3CCCN(C(=O)NCC4CC4)C3)n3ccccc23)c1 (stereo not drawn) [Compound 3-14] | > 3000
13 | CCc1ccccc1NC(=O)N1CCCC(c2nc(-c3cccc(OC)c3)c3ccccn23)C1 (stereo not drawn) [Compound 3-15] | > 3000
14 | COc1cccc(NC(=O)N2CCCC(c3nc(-c4cccc(OC)c4)c4ccccn34)C2)c1 (stereo not drawn) [Compound 3-16] | 100 to 500
15 | COc1cccc(-c2nc(C3CCCN(C(=O)Nc4cccc(Cl)c4)C3)n3ccccc23)c1 (stereo not drawn) [Compound 3-17] | 500 to 1000
16 | CCc1cccc(NC(=O)N2CCCC(c3nc(-c4cccc(OC)c4)c4ccccn34)C2)c1 (stereo not drawn) [Compound 3-18] | > 3000
17 | COc1ccc(NC(=O)N2CCCC(c3nc(-c4cccc(OC)c4)c4ccccn34)C2)cc1 (stereo not drawn) [Compound 3-19] | 100 to 500
18 | COc1cccc(-c2nc(C3CCCN(C(=O)Nc4ccc(Cl)cc4)C3)n3ccccc23)c1 (stereo not drawn) [Compound 3-20] | 500 to 1000

Row | Compound | IC50 [nM]
19 | COc1cccc(-c2nc(C3CCCN(C(=O)Nc4cccc(C#N)c4)C3)n3ccccc23)c1 (stereo not drawn) [Compound 3-21] | 100 to 500
20 | CCc1ccc(NC(=O)N2CCCC(c3nc(-c4cccc(OC)c4)c4ccccn34)C2)cc1 (stereo not drawn) [Compound 3-22] | 100 to 500
21 | COc1cccc(-c2nc(C3CCCN(C(=O)Nc4ccc(C)c(C)c4)C3)n3ccccc23)c1 (stereo not drawn) [Compound 3-23] | 100 to 500
22 | COc1cccc(-c2nc(C3CCCN(C(=O)Nc4cccc(N(C)C)c4)C3)n3ccccc23)c1 (stereo not drawn) [Compound 3-24] | 100 to 500
23 | COc1cccc(-c2nc(C3CCCN(C(=O)Nc4cccc(OC)c4C)C3)n3ccccc23)c1 (stereo not drawn) [Compound 3-26] | 100 to 500
24 | COc1cccc(-c2nc(C3CCCN(C(=O)Nc4ccccc4F)C3)n3ccccc23)c1 (stereo not drawn) [Compound 3-28] | 100 to 500
25 | COc1cccc(-c2nc([C@H]3CCCN(C(=O)Nc4ccccc4)C3)n3ccccc23)c1 [Compound 3-29] | 1000 to 3000
26 | COc1cccc(-c2nc(C3CCCN(C(=O)Nc4ccc(OC)c(OC)c4)C3)n3ccccc23)c1 (stereo not drawn) [Compound 4-1] | 100 to 500
27 | COc1cccc(-c2nc(C3CCCN(C(=O)Nc4ccccc4N(C)C)C3)n3ccccc23)c1 (stereo not drawn) [Compound 4-3] | 500 to 1000
28 | COc1cccc(-c2nc(C3CCCN(C(=O)Nc4ccc(C#N)cc4)C3)n3ccccc23)c1 (stereo not drawn) [Compound 4-4] | 500 to 1000
29 | COc1cccc(-c2nc(C3CCCN(C(=O)N(C)c4ccccc4)C3)n3ccccc23)c1 (stereo not drawn) [Compound 5-1] | 1000 to 3000
30 | COc1cccc(-c2nc(C3CCCN(C(=O)N(C)c4ccc(F)cc4)C3)n3ccccc23)c1 (stereo not drawn) [Compound 5-2] | 1000 to 3000
31 | COc1cccc(-c2nc(C3CCCN(C(=O)Nc4ccc(C)cc4F)C3)n3ccccc23)c1 (stereo not drawn) [Compound 5-3] | 500 to 1000
32 | COc1cccc(-c2nc(C3CCCN(C(=O)Nc4ccc(C)cc4C)C3)n3ccccc23)c1 (stereo not drawn) [Compound 5-4] | 100 to 500
33 | COc1cccc(-c2nc(C3CCCN(C(=O)Nc4ccc(C)cc4C)C3)n3ccccc23)c1 (stereo not drawn) [Compound 5-5, N-(2,4-dimethylphenyl)-3-(1-(3-methoxyphenyl)imidazo[1,5-a]pyridin-3-yl)piperidine-1-carboxamide] | 100 to 500
34 | COc1cccc(-c2nc(C3CCN(C(=O)Nc4cccc(N(C)C)c4)CC3)n3ccccc23)c1 [Compound 5-8] | 1000 to 3000
35 | COc1cccc(-c2nc(C3CCN(C(=O)Nc4ccc(N(C)C)cc4)CC3)n3ccccc23)c1 [Compound 5-9] | > 3000

Now from value to molecule:

Row | IC50 [nM] | Compound
36 | 100 to 500 | COc1cccc(-c2nc([C@@H]3CCCN(C(=O)Nc4nc(C(C)C)ns4)C3)n3ccccc23)c1 [Compound 1-28]
37 | 100 to 500 | COc1cccc(-c2nc([C@@H]3CCCN(C(=O)Nc4ccon4)C3)n3ccccc23)c1 [Compound 1-30]
38 | 100 to 500 | COc1cccc(-c2nc([C@@H]3CCCN(C(=O)Nc4ccc5ccccc5c4)C3)n3ccccc23)c1 [Compound 1-31]
39 | < 100 | COc1cccc(-c2nc([C@@H]3CCCN(C(=O)Nc4ccc5c(cnn5C)c4)C3)n3ccccc23)c1 [Compound 1-32]
40 | < 100 | COc1cccc(-c2nc([C@@H]3CCCN(C(=O)Nc4noc(C)c4C)C3)n3ccccc23)c1 [Compound 1-33]
41 | 100 to 500 | COc1cccc(-c2nc(C3CCCN(C(=O)Nc4ccc(F)cc4)C3)n3ccccc23)c1 (stereo not drawn) [Compound 3-1]
42 | 100 to 500 | COc1cccc(-c2nc(C3CCCN(C(=O)Nc4cccc(C)c4)C3)n3ccccc23)c1 (stereo not drawn) [Compound 3-2]
43 | 100 to 500 | COc1cccc(-c2nc(C3CCCN(C(=O)Nc4cccc(F)c4)C3)n3ccccc23)c1 (stereo not drawn) [Compound 3-3]
44 | 100 to 500 | COc1cccc(-c2nc(C3CCCN(C(=O)Nc4ccc(C)cc4)C3)n3ccccc23)c1 (stereo not drawn) [Compound 3-5]
45 | 100 to 500 | COc1cccc(-c2nc(C3CCCN(C(=O)Nc4ccccc4)C3)n3ccccc23)c1 (stereo not drawn) [Compound 3-6]
46 | 100 to 500 | COc1cccc(-c2nc(C3CCCN(C(=O)Nc4ccccc4OC)C3)n3ccccc23)c1 (stereo not drawn) [Compound 3-8]
47 | < 100 | COc1cccc(-c2nc(C3CCCN(C(=O)Nc4ccc(N(C)C)cc4)C3)n3ccccc23)c1 (stereo not drawn) [Compound 3-25, N-(4-(dimethylamino)phenyl)-3-(1-(3-methoxyphenyl)imidazo[1,5-a]pyridin-3-yl)piperidine-1-carboxamide]
48 | < 100 | COc1cccc(-c2nc([C@@H]3CCCN(C(=O)Nc4ccccc4)C3)n3ccccc23)c1 [Compound 3-27]
49 | < 100 | COc1cccc(-c2nc(C3CCCN(C(=O)Nc4cc(OC)c(OC)c(OC)c4)C3)n3ccccc23)c1 (stereo not drawn) [Compound 4-2, 3-(1-(3-methoxyphenyl)imidazo[1,5-a]pyridin-3-yl)-N-(3,4,5-trimethoxyphenyl)piperidine-1-carboxamide]
50 | < 100 | COc1cccc(-c2nn(C3CCCN(C(=O)Nc4ccc(N(C)C)cc4)C3)c3ccccc23)c1 (stereo not drawn) [Compound 5-6]
51 | < 100 | COc1cccc(-c2nc([C@@H]3CCCN(C(=O)Nc4ccc(CO)cc4)C3)n3ccccc23)c1 [Compound 5-7]
